# Measured values as given in patent US12031087B2, “Oxygenated solvents for improved production of oil and gas” (Board of Regents, The University of Texas System, priority 2019, dated 2024).
# Legend:
# [1] = Viscosity of crude oil/3p mixtures (in-line viscometer); assay type: physicochemical; details: 347 K
# Procedure: (§1) Density and viscosity experiments. […] The system consists mainly of automated pumps, a sample accumulator, an in-line fluid densitometer, an in-line viscometer, an oven, and an effluent accumulator. The pump (Teledyne ISCO 100DX) maintained the system pressure automatically by water.
# (§2) In the density measuring cell (Anton Paar DMA-HPM), fluid's density is measured in a U-shaped tube, in the range from 0 to 3000 kg/m^3. The instrument precision of the density meter is ±1 kg/m^3. Anton Paar DMA-HPM uses the method of oscillating U-tube for its density measurement, in which the sample's density is calculated from the sample's period of oscillation. The in-line viscometer (ViscoPro 2100) measures the viscosity of a fluid in the range from 0.2 to 2 cp. The instrument precision of the viscometer is ±0.02 cp and repeatability is ±0.5% of the reading. During the viscosity measurement, the magnetic piston is surrounded by the fluid sample and oscillates under magnetic force. The sample's viscosity is calculated from the time required for the piston to complete a two-way cycle. The viscometer and density meter were placed in a Despatch oven (model LAC2-18-8). Light-emitting diode screens that display measured data from the fluid densitometer and viscometer were connected outside the oven. The absolute pressure of the system was measured with a pressure gauge (Omega PX459-2.5KGI-EH).
# (§3) Densities and viscosities were measured for the following mixtures of crude oil and 3p: 81.4 wt % crude oil and 18.6 wt % 3p (33 mol % 3p), 59.0 wt % crude oil and 41.0 wt % 3p (60 mol % 3p), and 35.1 wt % crude oil and 64.9 wt % 3p (80 mol % 3p). Each mixture was mixed in a glass bottle with a magnetic mixer before placing it in the accumulator.
# (§4) Before each measurement, the system was cleaned thoroughly with toluene. Then, the system was dried by air and evacuated. Next, the fluid mixture was pumped into the system from the accumulator. Then, the temperature in the oven was increased to 347 K. When the temperature in the oven was stable, the mixture was measured for viscosities and densities at different pressures, ranging from 101 kPa to 10342 kPa.
# [2] = Solubility (quantitative 1H NMR) and aqueous stability of 3-pentanone in reservoir brine; details: 347 K
# [3] = IFT experiments by spinning drop tensiometer; assay type: physicochemical; details: 347 K
# Procedure: IFT experiments. […] During the measurement, the denser phase was placed into a horizontal tube first, and then a droplet of the less dense phase was placed into the horizontal tube while the tube was rotating. The droplet was deformed owing to the rotation, which was visualized by using a high-power monochromatic light-emitting diode and stroboscope. The shape of a droplet spinning in the capillary tube was recorded by a high-resolution camera.
# IFT values were measured for four systems: (1) crude oil and RB, (2) 3p and 1.1-wt % 3 pRB, (3) crude oil and 1.1-wt % 3 pRB, and (4) crude oil diluted by 18.6 wt % 3p and 0.8-wt % 3 pRB. System 1 was at phase equilibrium. A certain level of mass transfer was expected during the IFT measurement for the other three pseudo-binary systems. In system 2, water could transfer from 1.1-wt % 3 pRB to the 3p-rich phase. An IFT was estimated by using the densities of 3p and 1.1-wt % 3 pRB. In system 3, 3p could be transferred from RB to crude oil, which reduced the density of the oleic phase. Therefore, the upper-limit and lower-limit density values were assigned for the oleic phase to calculate a possible range of IFTs for this system. System 4 was tested to validate the range of IFT values estimated for system 3.
# [4] = Density of crude oil/3p mixtures (in-line densitometer); assay type: physicochemical; details: 347 K
# Procedure: as §1, §2, §3, §4
# [5] = Miscibility of 3p with crude oil; assay type: physicochemical; details: room temperature, 30-95 wt % 3p
# Text: 3-Pentanone properties. […] The density of 3p is 760 kg/m^3 at the experimental conditions in this research (347 K and atmospheric pressure).
# [6] = Solubility of water in 3p; assay type: physicochemical; details: 343 K
# [7] = Spontaneous imbibition in Amott cells; details: oil diluted by 18.6 wt % 3p
# [8] = Volume change on mixing of 3-pentanone and RB (molar volume); assay type: physicochemical; details: 347 K and atmospheric pressure
structure (smiles),measurement,setting,value
CCC(=O)CC [3-pentanone],μo^−1/2 of 3p-diluted oil,"[1]; 33 mol % or 18.6 wt % 3p, atmospheric pressure",1.2383 cp^−1/2
same,Viscosity,"[1]; crude oil with 18.6 wt % (33 mol %) 3-pentanone, 134.38 kPa",0.6522 cp
same,Viscosity,"[1]; crude oil with 18.6 wt % (33 mol %) 3-pentanone, 1381.57 kPa",0.6534 cp
same,Viscosity,"[1]; crude oil with 18.6 wt % (33 mol %) 3-pentanone, 3448.00 kPa",0.6533 cp
same,Viscosity,"[1]; crude oil with 18.6 wt % (33 mol %) 3-pentanone, 6887.59 kPa",0.6545 cp
same,Viscosity,"[1]; crude oil with 18.6 wt % (33 mol %) 3-pentanone, 10336.00 kPa",0.6561 cp
same,Viscosity,"[1]; crude oil with 41.0 wt % (60 mol %) 3-pentanone, 157.89 kPa",0.4609 cp
same,Viscosity,"[1]; crude oil with 41.0 wt % (60 mol %) 3-pentanone, 1375.71 kPa",0.4604 cp
same,Viscosity,"[1]; crude oil with 41.0 wt % (60 mol %) 3-pentanone, 3448.00 kPa",0.4596 cp
same,Viscosity,"[1]; crude oil with 41.0 wt % (60 mol %) 3-pentanone, 6889.10 kPa",0.4613 cp
same,Viscosity,"[1]; crude oil with 41.0 wt % (60 mol %) 3-pentanone, 10337.52 kPa",0.4592 cp
same,Viscosity,"[1]; crude oil with 64.9 wt % (80 mol %) 3-pentanone, 135.9 kPa",0.3267 cp
same,Viscosity,"[1]; crude oil with 64.9 wt % (80 mol %) 3-pentanone, 1381.57 kPa",0.3264 cp
same,Viscosity,"[1]; crude oil with 64.9 wt % (80 mol %) 3-pentanone, 3446.55 kPa",0.3242 cp
same,Viscosity,"[1]; crude oil with 64.9 wt % (80 mol %) 3-pentanone, 6893.45 kPa",0.3221 cp
same,Viscosity,"[1]; crude oil with 64.9 wt % (80 mol %) 3-pentanone, 10340.41 kPa",0.3205 cp
same,oil viscosity reduction,[1]; oil diluted by 18.6 wt % (33 mol %) 3-pentanone,21%
same,3p solubility in deionized water,[2],2.59 wt %
same,aqueous stability of 3p in RB (salt precipitation),[2]; overall 3p 0.1-40 wt %,No salt precipitation was observed
same,solubility limit of 3-pentanone in RB,"[2]; reservoir brine 68722 ppm, quantitative 1H NMR",1.1 wt %
same,effect of 3p on IFT between oleic and aqueous phases,[3]; 1.1 wt % 3p in aqueous phase,essentially no effect
same,IFT,"[3]; system 2: 3p and 1.1-wt % 3pRB, atmospheric pressure",10.02 mN/m
same,density of crude oil diluted with 18.6 wt % 3-pentanone,[4]; atmospheric pressure,772 kg/m^3
same,Density,"[4]; crude oil with 18.6 wt % (33 mol %) 3-pentanone, 103.97 kPa",771.8049 kg/m^3
same,Density,"[4]; crude oil with 18.6 wt % (33 mol %) 3-pentanone, 1385.02 kPa",773.0452 kg/m^3
same,Density,"[4]; crude oil with 18.6 wt % (33 mol %) 3-pentanone, 3452.00 kPa",775.0159 kg/m^3
same,Density,"[4]; crude oil with 18.6 wt % (33 mol %) 3-pentanone, 6899.03 kPa",778.2247 kg/m^3
same,Density,"[4]; crude oil with 18.6 wt % (33 mol %) 3-pentanone, 10345.03 kPa",781.3632 kg/m^3
same,Density,"[4]; crude oil with 41.0 wt % (60 mol %) 3-pentanone, 107.01 kPa",768.9360 kg/m^3
same,Density,"[4]; crude oil with 41.0 wt % (60 mol %) 3-pentanone, 1379.02 kPa",770.3187 kg/m^3
same,Density,"[4]; crude oil with 41.0 wt % (60 mol %) 3-pentanone, 3447.03 kPa",772.3456 kg/m^3
same,Density,"[4]; crude oil with 41.0 wt % (60 mol %) 3-pentanone, 3891.03 kPa",775.7424 kg/m^3
same,Density,"[4]; crude oil with 41.0 wt % (60 mol %) 3-pentanone, 10343.03 kPa",779.0497 kg/m^3
same,Density,"[4]; crude oil with 64.9 wt % (80 mol %) 3-pentanone, 101.01 kPa",765.4374 kg/m^3
same,Density,"[4]; crude oil with 64.9 wt % (80 mol %) 3-pentanone, 1383.02 kPa",766.7794 kg/m^3
same,Density,"[4]; crude oil with 64.9 wt % (80 mol %) 3-pentanone, 3445.03 kPa",769.0788 kg/m^3
same,Density,"[4]; crude oil with 64.9 wt % (80 mol %) 3-pentanone, 6896.00 kPa",772.6733 kg/m^3
same,Density,"[4]; crude oil with 64.9 wt % (80 mol %) 3-pentanone, 10342.00 kPa",776.2332 kg/m^3
same,phase separation of 3p/crude oil mixtures,[5],No phase separation was observed
same,solubility of water in 3p,[6],approximately 3 wt %
same,increase of oleic phase saturation (oil swelling),"[7]; 347 K, atmospheric pressure",24%
same,enhancement of oil recovery rate because of oil dilution by 3p (scaling theory),[7]; spontaneous imbibition,13%
same,volume change on mixing of 3-pentanone and RB,[8],smaller than 0.39%
